Reference: US12466812B2, “Pyridinyltriazine derivative having protein kinase inhibitory activity, and pharmaceutical composition for preventing, ameliorating, or treating cancer comprising same” (KOREA INSTITUTE OF SCIENCE AND TECHNOLOGY, priority 2019, dated 2025)

Tests used:
[1] = target: CYP3A4 (Homo sapiens, UniProt P08684); test: Inhibitory activity against CYP metabolic enzyme; format: in vitro ADME
Procedure: (§1) In order to determine whether or not there is a possibility that the compounds synthesized in Examples 1, 22, and 24 of the present invention can cause side effects of drug interaction, the rate (%) of inhibition against 5 major metabolic enzymes (CYP1A2, CYP2C9, CYP2C19, CYP2D6, and CYP3A4) among CYPs (cytochrome P450), which are enzymes involved in oxidative metabolism of drugs, was measured. […] That is, it can be seen that the compound of the present invention has a low possibility of causing side effects of drug interaction.

[2] = target: CYP2C19 (Homo sapiens, UniProt P33261); test: Inhibitory activity against CYP metabolic enzyme; format: in vitro ADME
Procedure: as §1

[3] = target: T1, CYP1A2 (Homo sapiens, UniProt P05177); test: Inhibitory activity against CYP metabolic enzyme; format: in vitro ADME
T1 sequence (P05177 1-516): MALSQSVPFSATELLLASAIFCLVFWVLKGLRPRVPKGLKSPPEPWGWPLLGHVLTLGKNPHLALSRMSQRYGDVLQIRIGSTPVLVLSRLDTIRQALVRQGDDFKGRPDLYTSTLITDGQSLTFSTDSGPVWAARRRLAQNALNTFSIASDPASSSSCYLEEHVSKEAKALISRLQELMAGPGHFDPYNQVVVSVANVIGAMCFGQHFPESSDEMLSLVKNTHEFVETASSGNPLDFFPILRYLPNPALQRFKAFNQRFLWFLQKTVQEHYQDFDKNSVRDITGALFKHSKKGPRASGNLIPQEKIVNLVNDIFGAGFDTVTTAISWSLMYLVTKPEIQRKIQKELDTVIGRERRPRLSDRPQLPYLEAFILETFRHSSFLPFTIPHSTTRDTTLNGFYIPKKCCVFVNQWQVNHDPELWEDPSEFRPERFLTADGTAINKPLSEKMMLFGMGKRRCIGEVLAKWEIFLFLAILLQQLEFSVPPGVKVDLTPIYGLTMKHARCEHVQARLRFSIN
Procedure: as §1

[4] = target: CYP2C9 (Homo sapiens, UniProt P11712); test: Inhibitory activity against CYP metabolic enzyme; format: in vitro ADME
Procedure: as §1

[5] = target: CYP2D6 (Homo sapiens, UniProt P10635); test: Inhibitory activity against CYP metabolic enzyme; format: in vitro ADME
Procedure: as §1

[6] = target: FGFR3 mutant (K650E) (Homo sapiens, UniProt P22607, K650E); test: Pan-FGFR mutant enzymatic activity; format: biochemical; conditions: mutant enzyme
Procedure: The inhibitory activity against pan-FGFR mutants of the compounds synthesized in Examples 1, 8, 13, 22, and 24 was measured, the inhibitory activity on each of enzymatic activity and cellular activity was evaluated, and the results are shown in Tables 3 and 4 below.

Sequence of FGFR3 mutant (K650E) (P22607 23-806 K650E): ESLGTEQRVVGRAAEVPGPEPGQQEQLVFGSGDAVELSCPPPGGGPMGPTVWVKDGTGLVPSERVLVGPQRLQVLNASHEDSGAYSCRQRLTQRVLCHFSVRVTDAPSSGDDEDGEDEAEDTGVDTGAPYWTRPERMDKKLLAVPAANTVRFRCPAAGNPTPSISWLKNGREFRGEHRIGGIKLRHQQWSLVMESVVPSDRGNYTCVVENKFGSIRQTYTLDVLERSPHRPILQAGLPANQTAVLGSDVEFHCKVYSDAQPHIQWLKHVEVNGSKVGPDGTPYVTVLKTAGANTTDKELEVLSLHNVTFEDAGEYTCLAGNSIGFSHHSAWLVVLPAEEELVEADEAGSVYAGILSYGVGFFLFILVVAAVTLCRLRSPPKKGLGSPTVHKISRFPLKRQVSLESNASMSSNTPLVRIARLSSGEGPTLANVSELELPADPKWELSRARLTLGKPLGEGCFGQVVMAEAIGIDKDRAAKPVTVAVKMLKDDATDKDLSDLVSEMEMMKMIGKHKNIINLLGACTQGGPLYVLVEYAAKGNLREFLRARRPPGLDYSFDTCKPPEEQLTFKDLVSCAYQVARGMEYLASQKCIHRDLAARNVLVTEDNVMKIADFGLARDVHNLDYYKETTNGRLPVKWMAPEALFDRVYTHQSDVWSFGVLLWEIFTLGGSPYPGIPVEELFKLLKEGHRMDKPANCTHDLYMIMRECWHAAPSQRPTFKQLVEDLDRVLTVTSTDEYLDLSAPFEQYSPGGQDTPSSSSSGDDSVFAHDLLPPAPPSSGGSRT
Sequence of CYP2C19 (P33261 whole entry): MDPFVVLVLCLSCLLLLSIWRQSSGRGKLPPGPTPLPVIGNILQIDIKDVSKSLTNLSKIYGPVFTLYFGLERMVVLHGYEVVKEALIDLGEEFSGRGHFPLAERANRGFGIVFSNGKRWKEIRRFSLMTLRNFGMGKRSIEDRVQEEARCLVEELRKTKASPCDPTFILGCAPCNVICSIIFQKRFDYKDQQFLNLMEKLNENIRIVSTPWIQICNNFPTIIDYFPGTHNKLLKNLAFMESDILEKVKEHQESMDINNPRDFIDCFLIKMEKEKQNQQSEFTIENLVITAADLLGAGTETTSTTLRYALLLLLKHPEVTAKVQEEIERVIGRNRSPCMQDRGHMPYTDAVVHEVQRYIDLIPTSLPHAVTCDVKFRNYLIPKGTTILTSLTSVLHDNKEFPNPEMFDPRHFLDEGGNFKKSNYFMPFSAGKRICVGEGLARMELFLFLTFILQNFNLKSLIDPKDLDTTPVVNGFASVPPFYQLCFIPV
Sequence of CYP2C9 (P11712 whole entry): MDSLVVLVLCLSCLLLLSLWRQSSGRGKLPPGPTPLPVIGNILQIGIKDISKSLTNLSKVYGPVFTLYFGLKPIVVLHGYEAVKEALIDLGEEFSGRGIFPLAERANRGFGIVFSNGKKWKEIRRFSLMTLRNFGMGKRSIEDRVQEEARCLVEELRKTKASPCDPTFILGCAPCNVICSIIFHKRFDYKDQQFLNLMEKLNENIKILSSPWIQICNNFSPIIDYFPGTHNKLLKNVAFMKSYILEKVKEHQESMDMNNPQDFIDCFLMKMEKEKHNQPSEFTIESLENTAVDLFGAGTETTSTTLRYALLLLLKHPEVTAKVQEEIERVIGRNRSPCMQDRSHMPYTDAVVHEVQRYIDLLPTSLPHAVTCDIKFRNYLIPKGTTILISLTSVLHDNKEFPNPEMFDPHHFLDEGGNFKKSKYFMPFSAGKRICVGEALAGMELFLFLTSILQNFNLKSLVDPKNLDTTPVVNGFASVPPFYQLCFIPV
Sequence of CYP2D6 (P10635 whole entry): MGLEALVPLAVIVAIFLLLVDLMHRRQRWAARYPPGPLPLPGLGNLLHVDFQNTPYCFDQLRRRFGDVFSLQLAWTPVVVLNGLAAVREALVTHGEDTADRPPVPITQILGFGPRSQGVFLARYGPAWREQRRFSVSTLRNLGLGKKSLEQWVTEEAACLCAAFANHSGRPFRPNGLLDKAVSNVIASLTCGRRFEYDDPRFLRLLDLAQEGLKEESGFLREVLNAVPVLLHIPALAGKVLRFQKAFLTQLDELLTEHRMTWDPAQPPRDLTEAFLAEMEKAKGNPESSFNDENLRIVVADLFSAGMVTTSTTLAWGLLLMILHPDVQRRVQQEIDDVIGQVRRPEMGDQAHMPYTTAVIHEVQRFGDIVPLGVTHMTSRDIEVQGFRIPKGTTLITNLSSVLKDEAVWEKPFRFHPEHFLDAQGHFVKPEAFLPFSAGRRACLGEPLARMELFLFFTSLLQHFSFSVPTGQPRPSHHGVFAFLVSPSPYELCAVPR
Sequence of CYP3A4 (P08684 whole entry): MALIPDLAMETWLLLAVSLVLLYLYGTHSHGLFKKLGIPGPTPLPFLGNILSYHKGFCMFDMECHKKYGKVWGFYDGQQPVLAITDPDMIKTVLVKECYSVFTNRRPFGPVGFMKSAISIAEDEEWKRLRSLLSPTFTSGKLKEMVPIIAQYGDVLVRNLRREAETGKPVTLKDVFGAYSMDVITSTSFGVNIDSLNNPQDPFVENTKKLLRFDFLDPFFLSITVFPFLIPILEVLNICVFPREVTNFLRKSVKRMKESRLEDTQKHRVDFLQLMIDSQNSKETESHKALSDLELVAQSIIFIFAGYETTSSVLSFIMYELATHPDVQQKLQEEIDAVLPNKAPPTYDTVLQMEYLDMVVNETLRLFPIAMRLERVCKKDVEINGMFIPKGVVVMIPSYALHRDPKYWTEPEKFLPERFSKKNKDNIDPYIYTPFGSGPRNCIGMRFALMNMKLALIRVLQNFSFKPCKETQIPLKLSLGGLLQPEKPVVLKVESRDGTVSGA

## CCN1CCN(c2ccc(Nc3ncnc(-c4cccnc4Nc4c(Cl)c(OC)cc(OC)c4Cl)n3)cc2)CC1 [Example 1]
[1]
  rate (%) of inhibition, CYP3A4: 17.0%
[2]
  rate (%) of inhibition, CYP2C19: 26.7%
[3]
  rate (%) of inhibition, CYP1A2: 71.4%
[4]
  rate (%) of inhibition, CYP2C9: 70.2%
[5]
  rate (%) of inhibition, CYP2D6: 80.9%
[6]
  IC50: < 100 nM
